Results reported in ChEMBL document CHEMBL1201862, “PubChem BioAssay data set” (2004).
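Protocol summary: plate cells (96-well), add compound at 5 concentrations, incubate 48 h, interpolate endpoints linearly. GI50 is the concentration that inhibits growth by half.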 Activity calls are given as the source filed them. Rule as the data show it: active = GI50 up to about 1.1 µM and inactive = higher.

What was measured:
Experiment in all cases: NCI-60 cell line screen, 48 h
[1] = test system: NCI-H23
[2] = test system: EKVX
[3] = test system: UO-31
[4] = test system: RXF 393
[5] = test system: HOP-92
[6] = test system: IGROV-1
[7] = test system: DU-145
[8] = test system: MCF7
[9] = test system: HOP-62
[10] = test system: SF-539
[11] = test system: SK-MEL-5
[12] = test system: SK-MEL-2
[13] = test system: SK-OV-3
[14] = test system: A549
[15] = test system: SR
[16] = test system: UACC-62
[17] = test system: SW-620
[18] = test system: HT-29
[19] = test system: SNB-75
[20] = test system: SN12C

Compound	GI50 [1]	GI50 [2]	GI50 [3]	GI50 [4]	GI50 [5]	GI50 [6]	GI50 [7]	GI50 [8]	GI50 [9]	GI50 [10]	GI50 [11]	GI50 [12]	GI50 [13]	GI50 [14]	GI50 [15]	GI50 [16]	GI50 [17]	GI50 [18]	GI50 [19]	GI50 [20]
Cc1cc(C)c(-n2c(-c3ccc(Br)cc3)cs/c2=N\N=C2C=C(C(C)(C)C)C(=O)C(C(C)(C)C)=C2)c(C)c1	> 100 µM (inactive)	> 100 µM (inactive)	> 100 µM (inactive)	21.7 µM (inactive)	> 50.1 µM (inactive)	> 63.7 µM (inactive)	> 100 µM (inactive)	> 100 µM (inactive)	32.7 µM (inactive)	> 69.3 µM (inactive)	> 100 µM (inactive)	> 100 µM (inactive)	> 72.9 µM (inactive)	> 100 µM (inactive)	> 100 µM (inactive)	> 81.1 µM (inactive)	> 100 µM (inactive)	> 100 µM (inactive)	17.5 µM (inactive)	> 100 µM (inactive)
C=C1C(=O)OC2CC1C(OC(=O)/C=C/c1ccccc1)C/C(C)=C/CC/C(C)=C/CCC2(C)O (stereo not given)	2.29 µM (inactive)	1.81 µM (inactive)	1.61 µM (inactive)	1.34 µM (inactive)	1.52 µM (inactive)	1.56 µM (inactive)	1.68 µM (inactive)	0.714 µM (active)	1.8 µM (inactive)	1.46 µM (inactive)	1.85 µM (inactive)	1.48 µM (inactive)	2.19 µM (inactive)	1.71 µM (inactive)	0.778 µM (active)	1.95 µM (inactive)	1.04 µM (active)	1.33 µM (inactive)	1.43 µM (inactive)	1.57 µM (inactive)
Clc1cc(OC2C3CC4CC(C3)CC2C4)nc(Cl)n1 (stereo not given)	14.8 µM (inactive)	7.29 µM (inactive)	2.88 µM (inactive)	12.8 µM (inactive)	1.64 µM (inactive)	10.6 µM (inactive)	19 µM (inactive)	18.3 µM (inactive)	25.9 µM (inactive)	20.7 µM (inactive)	17.9 µM (inactive)	12 µM (inactive)	67.5 µM (inactive)	29.6 µM (inactive)	3.52 µM (inactive)	12.2 µM (inactive)	13.9 µM (inactive)	15.4 µM (inactive)	39 µM (inactive)	16.1 µM (inactive)
COC(=O)C1C(=O)C(C(=O)OC)C2CCC1N2C (stereo not given)	0.571 µM (active)	> 100 µM (inactive)	59.8 µM (inactive)	24.9 µM (inactive)	16 µM (inactive)	22.9 µM (inactive)	28.8 µM (inactive)	33.6 µM (inactive)	36.2 µM (inactive)	33.5 µM (inactive)	> 100 µM (inactive)	20 µM (inactive)	28.4 µM (inactive)	> 100 µM (inactive)	32.1 µM (inactive)	40.3 µM (inactive)	36.5 µM (inactive)	35 µM (inactive)	35.2 µM (inactive)	32.1 µM (inactive)
O=C(NN=C1NCCCN1)c1ccco1	> 100 µM (inactive)	> 100 µM (inactive)	> 100 µM (inactive)	> 100 µM (inactive)	> 100 µM (inactive)	> 100 µM (inactive)	> 100 µM (inactive)	> 100 µM (inactive)	> 100 µM (inactive)	> 100 µM (inactive)	> 100 µM (inactive)	> 100 µM (inactive)	> 100 µM (inactive)	> 100 µM (inactive)	> 100 µM (inactive)	> 100 µM (inactive)	> 100 µM (inactive)	> 100 µM (inactive)	> 100 µM (inactive)	> 100 µM (inactive)
COc1cc(Cc2cnc(N)nc2N)cc(OC)c1OCCCNc1ccc([N+](=O)[O-])cc1	16 µM (inactive)	15.3 µM (inactive)	12.4 µM (inactive)	10.4 µM (inactive)	14.3 µM (inactive)	12.5 µM (inactive)	15.8 µM (inactive)	12.1 µM (inactive)	13.6 µM (inactive)	12.7 µM (inactive)	5.79 µM (inactive)	15.5 µM (inactive)	31.5 µM (inactive)	13 µM (inactive)	4.68 µM (inactive)	12.9 µM (inactive)	15.1 µM (inactive)	2.92 µM (inactive)	16.2 µM (inactive)	16.3 µM (inactive)
CC1(C)OC[C@@H](C[C@H](O)COCc2ccccc2)O1	> 100 µM (inactive)	> 100 µM (inactive)	> 100 µM (inactive)	> 100 µM (inactive)	> 100 µM (inactive)	> 100 µM (inactive)	> 100 µM (inactive)	> 100 µM (inactive)	> 100 µM (inactive)	> 100 µM (inactive)	> 100 µM (inactive)	> 100 µM (inactive)	> 100 µM (inactive)	> 100 µM (inactive)	> 100 µM (inactive)	> 100 µM (inactive)	> 100 µM (inactive)	> 100 µM (inactive)	> 100 µM (inactive)	> 100 µM (inactive)
